The test system of data set [1] is HCAVSMCs. Briefly: Cytosolic vs. organelle bound peptide by digitonin semi-permeabilization. In kind it is cell-based, human. Conditions: Bafilomycin treatment. How it is done: In order to quantify the cytosolic bioavailability of the MK2i and HSP20 peptides a method to separate cytosolic and organelle bound (i.e. endosomal, lysosomal, golgi, etc.) peptide was adapted from the methods developed by Liu et a140. The procedure was optimized for this experiment based upon LDH release from HCAVSMCs treated with varying concentrations of digitonin (Calbiochem) in buffer (150 mM NaCl, 0.2 mM EDTA, 20 mM HEPES-NaOH (pH 7.4), 2 mM DTT and 2 mM MgCL2) on ice for 10 mins on a rotary shaker operating at 100 RPM (supplementary FIG. 3). A concentration of 25 μg/mL was then chosen as the optimal digitonin concentration for selective semi-permeabilization of the HCAVSMC membrane and subsequently used for the analysis of intracellular peptide distribution.
To quantify intracellular distribution of the MK2i and p-HSP20 peptides, HCAVSMCs were seeded into a 96 well plate at a density of 20,000 cells/cm2 and allowed to adhere overnight in complete growth medium. A portion of the cells were pretreated with 500 nM Bafilomycin A1 (Sigma) for 30 minutes, and the Bafilomycin was included in subsequent peptide/NP treatment and in the post-treatment incubation phase to inhibit endosomal acidification. […] Treatments were removed and cells were incubated in fresh medium with or without 500 nM Bafilomycin A1 for 6 hours. […]

For data set [2], the system named is human saphenous vein (HSV). As to the kind of experiment: Inhibition of phenylephrine-induced HSV contraction. Conditions: 2 h treatment.
Experimental: Prior to experiments, HSV viability was confirmed. HSV rings were weighed and their lengths recorded. […] The rings were stretched and the length progressively adjusted until maximal tension was obtained 49. Normalized reactivity was obtained by determining the passive length-tension relationship for each vessel segment. Rings were maintained at a resting tension of 1 g, which produces maximal responses to contractile agonists, as previously determined, and equilibrated for 2 h in buffer. Force measurements were obtained using a Radnoti Glass Technology (Monrovia, Calif.) force transducer (159901A) interfaced with a Powerlab data acquisition system and LabChart software (AD Instruments, Colorado Springs, Colo.).
HSV rings were initially isometrically contracted with 110 mM KCl (with equimolar replacement of NaCl in bicarbonate buffer), and the generated force was measured. 110 mM KCl causes membrane depolarization, leading to contraction of vessels containing functionally viable smooth muscle. […]
Viable HSV rings were washed, allowed to equilibrate in bicarbonate solution for 30 min, and then contracted with phenylephrine (PE, 1 μM). […] Treated HSV rings were then contracted with the same doses of PE, and the forces generated were again recorded. […]
The test system of data set [3] is HCAVSMCs. Conditions: human, 72 h.
Experimental: For MK2i-NP and HSP20-NP studies, An amine-reactive Alexa-488 succinimidyl ester (Life Technologies) was dissolved in DMSO and mixed at a 1 to 3 molar ratio with the MK2i or p-HSP20 peptide in 100 mM sodium bicarbonate buffer (pH=8.3) and allowed to react for 3 hours. Unreacted fluorophore and organic solvent were removed using a PD-10 miditrap G-10 desalting column, and the fluorescently labeled MK2i and p-HSP20 peptides were lyophilized. […] Similarly, PPAA was mixed with fluorescently labeled p-HSP20 at a CR of [NH3^+]/[COO^−]=1:3 and syringe filtered through a 0.45 μm PTFE filter to form fluorescent HSP20-NPs. HCAVSMCs were grown to 80-90% confluence, harvested, and seeded at 20,000 cells/well in a 24 well plate and allowed to adhere overnight. […] Following treatment, cells were washed 2× in PBS, and either immediately harvested or incubated in complete growth media for an additional 72 hours. Cells were harvested with 0.05% trypsin-EDTA, centrifuged, and suspended in 0.1% Trypan blue in PBS (−/−) for analysis on a FACSCalibur flow cytometer (Becton Dickinson) with BD CellQuest™ Pro software (V 5.2). Data was exported and analyzed with FlowJo software (V 7.6.4). All samples were run in triplicate.
Data set [4] in a line: in vitro. Conditions: human, HCAVSMCs.
Experimental: 200 μL of cell suspension (at 10,000 cells/well) were seeded onto 96-well plates to yield an approximate 70% confluence per well. Cells were allowed to adhere to the plate overnight. […] Treatments were subsequently removed and the cells were cultured in fresh complete growth medium for 24 hours. Cells were then washed 2× with PBS +/+ and cell viability was then determined by a CytoTox-ONE Homogenous Membrane Integrity assay (Promega) according to the manufacturer's protocol. Briefly, 100 μL of Ambion KDalert Lysis Buffer was added to each well, and then 100 μL of freshly prepared CytoTox-ONE reagent was added to each well. After 10 minutes of incubation, 50 μL of stop solution was added, and the fluorescence of each well (kλex=560 nm, λem, =590 nm) was determined with a TECAN Infinite M1000 Pro plate reader.

Here are results for one compound from patent publication US10087225B2, “Formulation of MK2 inhibitor peptides” (MOERAE MATRIX, INC., priority 2015, dated 2018).

Molecules are shown by their SMILES. Peptide text beside a SMILES is read from it.

Turning to `CC(C)C[C@H](NC(=O)CNC(=O)[C@@H]1CCCN1C(=O)[C@H](CC(C)C)NC(=O)[C@@H]1CCCN1C(=O)[C@H](C)NC(=O)[C@H](COP(=O)(O)O)NC(=O)[C@H](C)NC(=O)[C@H](CCCNC(=N)N)NC(=O)[C@H](CCCNC(=N)N)NC(=O)[C@H](CC(C)C)NC(=O)[C@H](Cc1c[nH]c2ccccc12)NC(=O)[C@H](C)NC(=O)[C@H](CCCNC(=N)N)NC(=O)[C@H](C)NC(=O)[C@H](CCC(N)=O)NC(=O)[C@H](CCCNC(=N)N)NC(=O)[C@H](C)NC(=O)[C@H](C)NC(=O)[C@H](C)NC(=O)[C@H](CCCNC(=N)N)NC(=O)[C@H](C)NC(=O)[C@@H](N)Cc1ccc(O)cc1)C(=O)N[C@@H](CCCCN)C(=O)O` [p-HSP20] (HELM PEPTIDE1{Y.A.R.A.A.A.R.Q.A.R.A.W.L.R.R.A.[O=C([C@H](COP(=O)(O)O)N[*:1])[*:2]].A.P.L.P.G.L.K}$$$$V2.0; N-terminus and C-terminus assumed), the “cytosolic fraction of internalized free peptide” value in data set [1] is reported as 7.36%±8.28%. Besides, the “PE-induced HSV contraction” value in data set [2] is “significantly inhibited”. In data set [3], the “intracellular peptide retention (% of initial uptake remaining)” value was found to be 35%. This compound also showed a viability at 2 h, 500 µM in data set [4] of 77%.

As usually defined, the viability is a per cent measure of how many cells are alive, often set against a control. Higher therefore signals less harm to the cells.
